Assay [1] concerns IL-17AA-induced IL-17 signaling pathway. Briefly: Inhibition of IL-17AA-induced IL-17 signaling pathway in HEK-Blue IL-17 reporter cells (SEAP). In kind it is cell-based. The conditions noted are these: Homo sapiens; HEK-Blue IL-17 cells, IL-17AA 2.5 ng/mL, 20 hours; read-out: IC50 for Inhibiting IL-AA Signaling. In short, it runs like this: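 HEK-Blue IL-17 cells (HEK293 expressing human IL-17RA/RC, ACT1 and NF-κB/AP-1-driven SEAP), 10,000/well, pre-incubated with compound (serial dilution from 10 μM) for 1 h at 37 °C, then stimulated with IL-17AA at 2.5 ng/mL final for 20 h. SEAP in supernatant read with Quanti-Blue at 620 nm; IC50 by 4-parameter fit.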

In assay [2] the test system is rat collagen induced arthritis (CIA) model. Briefly: In vivo efficacy study in rat collagen induced arthritis (CIA) model. The conditions noted are these: female Lewis rats, 20 mg/kg PO once a day, 14 days. On the procedure:
Example 45. In Vivo Efficacy Study in Rat Collagen Induced Arthritis (CIA) Model
Bovine type II collagen solution (Chondrex) was emulsified with an equal volume of incomplete Freund's adjuvant (IFA, Sigma) to achieve an emulsion with a collagen concentration of 1 mg/mL. Female Lewis rats were immunized with the emulsion (200 μL per rat) through subcutaneous injection at the base of tail. After seven days from the initial immunization, rats received a booster injection of the emulsion (100 μL per rat). Each paw of the rat was evaluated and scored on a 0-4 scale based on arthritis severity, and the arthritis score of each rat was the sum of scores from four paws. When the arthritis scores reached 2-3, rats were randomized into four groups and dosed once a day via oral gavage (PO) with vehicle, compounds 35, 49 and 66 for 14 days, respectively. The arthritis score was assessed every other day. Efficacy was calculated by [1−(T14−T0)/(V14−V0)]×100%, where T14 and V14 are the average arthritis scores of the treatment group and the vehicle group on Day 14 of measurement, respectively, while T0 and V0 are the average arthritis scores of the treatment group and the vehicle group on Day 0, respectively. Statistical significance of difference in arthritis scores between the treatment and vehicle groups was analyzed using one-way ANOVA followed by Dunnett's test, and P<0.05 was considered statistically significant.

Assay [3] concerns IL-17AF-induced IL-17 signaling pathway. Put plainly: Inhibition of IL-17AF-induced IL-17 signaling pathway. It is filed as cell-based. The conditions noted are these: Homo sapiens; IL-17AF used instead of IL-17AA; read-out: IC50 for Inhibiting IL-AF Signaling. In short, it runs like this: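 HEK293-derived HEK-Blue IL-17 cells (IL-17RA/RC, ACT1, NF-κB/AP-1-driven SEAP) preincubated 1 hour at 37° C with serially diluted compound from 10 μM, then stimulated with IL-17AF for 20 hours. SEAP read colorimetrically at 620 nm; IC50 from 4-parameter fit of % inhibition.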

Assay [4] deals with T1, IL-17AA and IL-17RA (Homo sapiens, UniProt Q16552).
T1 construct: purchased Sino Biological 12047-H07B (IL-17AA); 10895-H02H (IL-17RA)
T1 sequence (Q16552 24-155): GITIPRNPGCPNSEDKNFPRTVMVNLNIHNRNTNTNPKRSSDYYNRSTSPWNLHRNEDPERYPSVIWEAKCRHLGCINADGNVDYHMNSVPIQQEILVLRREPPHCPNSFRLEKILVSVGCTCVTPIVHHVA
Put plainly: Competitive inhibition of human IL-17AA and IL-17RA binding (HTRF). The note with it: recombinant IL-17AA (His-tag) and IL-17RA (hFc-tag); read-out: IC50 for Inhibiting IL-AA/IL-RA Binding. Summed up: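 His-IL-17AA (1 nM) premixed 1 h with anti-His-Tb (0.4 nM), and Fc-IL-17RA (1 nM) with anti-IgG-d2 (1 μg/mL); these are pre-mix levels. Compounds, diluted from 10 μM, preincubated 2 h RT with IL-17AA mix; IL-17RA mix then added, 20 min. 665/615 ratio vs no-compound and no-IL-17AA controls; IC50 by 4-parameter fit.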
Background: Time-resolved FRET reads energy transfer from a long-lived donor to a nearby acceptor.

pIC50: −log10 of the molar value.

As to `[2H]C([2H])([2H])n1nccc1C(=O)N[C@H](C(=O)Nc1ccc([C@H](C)[C@@H](NC(=O)COC)c2ncnn2CC2CC2)cc1F)C(C1CC1)C1CC1` [Compound 35, N-((S)-1,1-dicyclopropyl-3-((4-((1R,2S)-1-(1-(cyclopropylmethyl)-1H-1,2,4-triazol-5-yl)-1-(2-methoxyacetamido)propan-2-yl)-2-fluorophenyl)amino)-3-oxopropan-2-yl)-1-(methyl-d3)-1H-pyrazole-5-carboxamide], the values for the pIC50 in assay [1], in assay [3] and in assay [4] were 8.35, 8.07 and 8.28, respectively. Further, the “suppression of arthritis disease progression (arthritis score)” value (“suppression” for short) in assay [2] is on record as “completely suppressed arthritis disease progression”.

Regarding `CCC(=O)N[C@@H](c1ncnn1CC1CC1)[C@@H](C)c1ccc(NC(=O)[C@@H](NC(=O)c2nonc2C)C(C2CC2)C2CC2)c(F)c1` [Compound 66, N-((S)-1,1-dicyclopropyl-3-((4-((1R,2S)-1-(1-(cyclopropylmethyl)-1H-1,2,4-triazol-5-yl)-1-propionamidopropan-2-yl)-2-fluorophenyl)amino)-3-oxopropan-2-yl)-4-methyl-1,2,5-oxadiazole-3-carboxamide], the pIC50 in assay [1] is 8.48; in assay [3], 8.08; in assay [4], 8.96. In assay [2], the “suppression” value is on record as “completely suppressed arthritis disease progression”.

With `COCC(=O)N[C@@H](c1ncnn1CC1CC1)[C@@H](C)c1ccc(NC(=O)[C@@H](NC(=O)c2nonc2C)C(C2CC2)C2CC2)c(F)c1` [Compound 39, N-((S)-1,1-dicyclopropyl-3-((4-((1R,2S)-1-(1-(cyclopropylmethyl)-1H-1,2,4-triazol-5-yl)-1-(2-methoxyacetamido)propan-2-yl)-2-fluorophenyl)amino)-3-oxopropan-2-yl)-4-methyl-1,2,5-oxadiazole-3-carboxamide], the pIC50 was 8.74 in assay [1], 8.59 in assay [3] and 8.66 in assay [4]. Also, in assay [2], the “suppression” value is reported as “completely suppressed arthritis disease progression”.

The record behind these values is patent publication US20260083708A1, “IL-17 MODULATORS AND USES THEREOF” (NNOCARE PHARMA INC., priority 2024, published 2026).
